Reference: PMC3872227 (Chemistry & biology, 2013)

Target: α1(A322D)β2γ2 GABAA receptor (α1 subunit) (Homo sapiens, UniProt P14867+P47870, P14867:A322D)
Experiment: whole-cell patch-clamp peak current at […] GABA, after SAHA treatment
Type: cell-based

Chain of α1(A322D)β2γ2 GABAA receptor (α1 subunit) (P14867 28-456 A322D): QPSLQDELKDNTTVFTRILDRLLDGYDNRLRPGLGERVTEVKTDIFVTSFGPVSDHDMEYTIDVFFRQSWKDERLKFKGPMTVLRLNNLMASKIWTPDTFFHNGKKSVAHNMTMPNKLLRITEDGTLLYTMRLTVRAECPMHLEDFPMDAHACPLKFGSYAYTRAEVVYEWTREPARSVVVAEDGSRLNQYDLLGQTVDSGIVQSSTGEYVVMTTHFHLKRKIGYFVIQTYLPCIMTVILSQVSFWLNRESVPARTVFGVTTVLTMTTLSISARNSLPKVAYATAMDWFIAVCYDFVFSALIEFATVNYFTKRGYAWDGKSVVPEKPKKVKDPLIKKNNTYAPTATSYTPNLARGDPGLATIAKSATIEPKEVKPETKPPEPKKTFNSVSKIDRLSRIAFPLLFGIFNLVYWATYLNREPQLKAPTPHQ
Chain of α1(A322D)β2γ2 GABAA receptor (α1 subunit) (P47870 26-512): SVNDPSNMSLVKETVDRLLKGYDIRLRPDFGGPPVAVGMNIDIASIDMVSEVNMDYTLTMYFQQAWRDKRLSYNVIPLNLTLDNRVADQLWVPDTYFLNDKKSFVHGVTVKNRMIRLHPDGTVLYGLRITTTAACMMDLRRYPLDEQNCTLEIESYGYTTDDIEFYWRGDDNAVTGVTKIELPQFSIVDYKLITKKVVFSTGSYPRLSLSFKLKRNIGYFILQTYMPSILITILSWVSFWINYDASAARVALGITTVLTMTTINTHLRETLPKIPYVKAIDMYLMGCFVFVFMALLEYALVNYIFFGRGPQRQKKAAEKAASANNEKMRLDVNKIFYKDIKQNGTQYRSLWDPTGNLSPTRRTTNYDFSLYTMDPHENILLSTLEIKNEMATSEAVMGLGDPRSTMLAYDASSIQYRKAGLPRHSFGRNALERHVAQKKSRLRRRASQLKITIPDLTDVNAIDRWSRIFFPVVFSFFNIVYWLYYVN
Chain of α1(A322D)β2γ2 GABAA receptor (α1 subunit) (P18507 40-475 partner): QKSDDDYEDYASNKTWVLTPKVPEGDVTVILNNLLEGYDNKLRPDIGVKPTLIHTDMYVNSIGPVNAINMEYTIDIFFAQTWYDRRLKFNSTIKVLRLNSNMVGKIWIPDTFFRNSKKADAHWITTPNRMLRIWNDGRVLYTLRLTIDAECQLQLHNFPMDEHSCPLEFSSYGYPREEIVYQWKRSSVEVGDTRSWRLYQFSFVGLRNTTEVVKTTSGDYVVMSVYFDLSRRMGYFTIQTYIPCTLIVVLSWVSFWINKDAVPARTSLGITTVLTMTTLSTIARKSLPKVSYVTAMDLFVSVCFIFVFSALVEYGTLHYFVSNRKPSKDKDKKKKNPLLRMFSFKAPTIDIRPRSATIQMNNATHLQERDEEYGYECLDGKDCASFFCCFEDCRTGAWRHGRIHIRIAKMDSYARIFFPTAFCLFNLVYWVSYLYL

## NCCCC(=O)O [GABA]
  whole-cell patch-clamp peak current at 3 mM GABA, after SAHA treatment: 14 ± 3 pA
